Measured values taken from patent publication US20180360799A1, “Nitrofuran Derivatives That Induce Apoptosis in Breast Cancer Cells by Activating Protein Expression” (Oklahoma Medical Research Foundation, priority 2015, published 2018).

Legend:
HCC-1143 cells = test: Cell viability, CellTiter-Glo, HCC-1143; format: cell-based; conditions: Homo sapiens, HCC1143, 72 h; Table 2; cancer cell viability, 3 d treatment; read-out: HCC-1143 IC50
Protocol: (§1) Given the known functions of CHOP in ER stress-induced apoptosis^16, 17 and in regulating cancer cell death,^6, 19, 20 the inventor investigated whether compound 1 affects the viability of TNBC cells. Three human TNBC cell lines, HCC-1806, HCC-1143, and HCC-38, were treated with doses of 1 ranging from 0.125 μM to 20 μM and their viability was assessed using the CellTiter-Glo assay, which measures intracellular ATP levels.
(§2) HCC-1806, HCC-1143, or HCC-38 cells were seeded at 3×10^3 cells/well in a 384-well plate and treated with compounds at the indicated concentrations. After 3 d treatment, the medium was aspirated and 20 μL/well of CellTiter-Glo reagent was added. Cell viability was measured with an EnVision multilabel plate reader. The IC50 value for cell viability of each compound was calculated with GraphPad Prism (La Jolla, Calif., US).

HCC-38 cells = test: Cell viability, CellTiter-Glo, HCC-38; format: cell-based; conditions: Homo sapiens, HCC38, 72 h; Table 2; cancer cell viability, 3 d treatment; read-out: HCC-38 IC50
Protocol: as §1, §2

HCC-1806 cells [1] = test: Live-cell phase-contrast microscopy of HCC-1806 cells; format: cell-based, human; conditions: near confluent HCC-1806, 10 μM, 24 h
Protocol: FIG. 2A is an image showing apoptosis of HCC-1806 cells after treatment with a 5-nitrofuran-2-amide derivative compound 3d (above). Cells were treated with 3d (10 μM) for the indicated times, and cleavage of caspase-3 was determined by Western blotting. α-Tubulin was used as a loading control. The data shown are representative of 3 independent studies. FIGS. 2B and 2C are live-cell phase-contrast images (magnification 10×) showing treatment with DMSO and (10 μM) 5-nitrofuran-2-amide derivative compound 3d respectively for 24 h. To determine whether the reduction in TNBC cell viability by the 5-nitrofuran-2-amide derivatives was due to the induction of apoptosis, the inventor analyzed cleavage of caspase-3, a critical executioner of apoptosis, in HCC-1806 cells treated with compound 3d. […] To confirm this, HCC-1806 cells were cultured to near confluence and treated with 10 μM 3d or DMSO for 24 h and then imaged by live-cell phase-contrast microscopy.

[2] = tested on: UPRE-Luciferase (UPRE-Luc) reporter; test: UPRE-Luc reporter assay in HEK293 cells; format: cell-based, human; conditions: 3d 10 μM or Tm 1 μg/mL, 24 h
Protocol: FIG. 3G is a graph showing HEK293 cells stably expressing CHOP-Luc, ERSE-Luc, or UPRE-luc reporters were treated with DMSO, a 5-nitrofuran-2-amide derivative, or tunicamycin. HEK293 cells stably expressing CHOP-Luc, ERSE-Luc, or UPRE-luc reporters were treated with DMSO, compound 3d (10 μM), or Tm (1 μg/mL) for 24 h, and luciferase activity was measured using the Bright-Glo assay. Results are the means of 4 replicate wells and are representative of 3 independent experiments.
The inventor next asked whether the IRE1α and ATF6 branches of the unfolded protein response were also activated by compound 3d treatment of TNBC cells. […] XBP1 mRNA splicing, as measured by XBP1s levels, increased only slightly in the first 24 h after compound 3d treatment of HCC-1806 cells (from 11% of total XBP1 at 0 h to 15˜20% at 2˜24 h). […] Next, it was determined whether compound 3d activates the ATF6 pathway by evaluating its effect on the activity of an ER stress response elements (ERSE)-Luc reporter stably established in HEK293 cell line.
The HEK293T CHOP reporter cell line (CHOP-Luc) was previously described.^21 HEK293T cells were stably transfected with ERSE-Luciferase^25 and UPRE-Luciferase^23 reporters to generate ERSE-Luc and UPRE-Luc reporter cell lines, respectively. […] Luciferase activity was measured with a Bright-Glo kit 24 h later.

HCC-1806 cells [3] = test: Viability of siRNA-transfected HCC-1806 cells, CellTiter-Glo; format: cell-based, human; conditions: 48 h
Protocol: FIG. 3H is a graph showing cell viability of HCC-1806 cells transfected with a control or CHOP siRNA after treatment with a 5-nitrofuran-2-amide derivative or DMSO. Control or CHOP siRNA (20 nM) was transfected into HCC-1806 cells, and 6 h later, cells were treated with compound 3d (5 μM) or DMSO for 48 h. Cell viability was measured using the CellTiter-Glo assay. The data shown are representative of 3 independent studies. *P<0.05 by Student's t-test compared with DMSO-treated cells.
To confirm that CHOP induction plays a role in compound 3d-mediated TNBC cell death, the inventor asked whether siRNA-mediated knockdown of CHOP mitigated compound 3d-induced cell death. For this, HCC-1806 cells were transfected with different concentrations of CHOP siRNA, and knockdown efficiency was assessed by RT-PCR.
HCC-1806 cells incubated with serum-free RPMI 1640 medium (Corning) were transfected with scrambled control or CHOP siRNA (E-004819-00; Dharmacon/Thermo Scientific, IL, US) using LipofectAMINE reagent (Invitrogen). After 6 h, the medium was replaced with RPMI 1640 medium supplemented with 10% FBS and compound 3d was added. After 48 h, the medium was aspirated and 60 μL/well of CellTiter-Glo reagent was added in 96-w format. Cell viability was measured with an EnVision multilabel plate reader.

- IC50 (HCC-1143 cells): 2100 nM
- IC50 (HCC-38 cells): 2500 nM
Compound: CC1CCN(c2ccc(NC(=O)c3ccc([N+](=O)[O-])o3)cc2)CC1 [Compound 3d]
- cell death seen by phase-contrast imaging (HCC-1806 cells [1]): few cells were observed
- increase of UPRE-Luc luciferase activity [2]: less than 2 fold
- viability of cells transfected with control siRNA (HCC-1806 cells [3]; HCC-1806, 3d 5 μM): marked reduction in the viability
- cell death in cells transfected with CHOP siRNA (HCC-1806 cells [3]; HCC-1806, CHOP siRNA 20 nM, 3d 5 μM): significantly attenuated the effects of compound 3d
